For series [1], the system named is SCCHN cells. Nature of the series: Incorporation of decoy into SCCHN cells, fluorescence labeled flow cytometry. To be noted: SCCHN cells in vitro, previously assessed. It counts as cell-based. (In general: In flow cytometry, cells or beads pass a laser one at a time.)
In series [2] the test system is Egr-1 transcription recognition sequence. Kind of series: pEgr-1-Luc reporter assay in SCCHN cells. To be noted: SCCHN cells co-transfected with 2 μg pEgr-1-Luc and 2 μg decoy, 24 hrs. It counts as cell-based. The protocol:
STAT3 decoy-specific transcriptional repression of Egr-1(Early Growth Response -1 enhancer, pEGR-1-Luc, Stratagene Cat. No. 240130, containing three repeats of the Egr-1 transcription recognition sequence: 5′-GGGTGGGGN-3′ (SEQ ID NO: 31) was also observed. SCCHN cells were co-transfected with 2 μg pEgr-1-Luc plasmid and 2 μg of the STAT3 decoy or the control mutant decoy. At 24 hrs after transfection, luciferase activity was measured and normalized to the total amount of protein according to standard methods.
(In general: Reporter assays use an easily measured gene product as a stand-in for the process of interest.)

Series [3] deals with normal mucosal epithelial cells. Conditions: cited from earlier work.
In series [4] the test system is SCCHN xenografts (1483 cells). Nature of the series: In vivo apoptosis determination by TUNEL in harvested xenografts. Also on record: species or system athymic nude mice. Conditions: xenografts harvested after 25 treatments; p=0.00038. The protocol:
In vivo apoptosis determinations. Detection and quantitation of apoptosis was performed by the TUNEL reaction, using the In Situ Cell Death Detection Kit, POD (Roche Diagnostics GmbH, Roche Applied Science, Sandhofer Strasse 116, D-68305 Mannheim, Germany). Cryostat sections were fixed in 4% paraformaldehyde in PBS for 30 min. After washing with PBS for 30 min, the sections were incubated in permeabilization solution (0.1% Triton X-100, 0.1% sodium citrate) for 2 min on ice. The sections were washed twice with PBS before the samples were incubated for 60 min at 37° C. with TUNEL reaction mixture to label DNA strand breaks with Fluorescein-dUTP. After washing three times with PBS, the samples were incubated with Converter-POD for 30 min at 37° C., washed again with PBS, and finally exposed to 0.025% 3,3′-diaminobenzidine (DAB)/0.01% H2O2 in Tris-HCl buffer (pH 7.4) for 10 min. The number of apoptotic cells per high-power field (HPF) was counted. For each treatment, five samples were evaluated, and 5-10 fields of view were quantified on each section.
In vivo tumor xenograft studies. Female athymic nude mice nu/nu (4-6 weeks old; 20±2 g; Harlan-Sprague-Dawley) were implanted with 1×10^6 1483 cells into the right and left flank with a 26-gauge needle/1 ml tuberculin syringe, resulting in two tumors per mouse. […]

For series [5], the system named is Bcl-xL. Nature of the series: Bcl-xL expression by immunoblotting in SCCHN cells in vitro. The series is classed as cell-based, human. Conditions: 1483 cells; 25 μM, 6 days; p<0.0001. The protocol: (§1) Immunoblotting. Whole cell extracts were mixed with 2× sodium dodecyl sulfate (SDS) sample buffer (125 mmol/L Tris-HCL, pH 6.8; 4% SDS; 20% glycerol; 10% 2 mercaptoethanol) at 1:1 ratio and were heated for 5 min at 100° C. Proteins (50 μg/lane) were separated by 12.5% SDS-PAGE and transferred onto a nitrocellulose membrane (MSI; Westboro, Mass). Prestained molecular weight markers (GIBCO BRL; Gaithersburg, MD) were included in each gel. Membranes were blocked for 30 min in Tris-buffered saline (TBS: 10 mmol/L Tris-HCL, pH 7.5 and 150 mmol/L NaCl) with 0.5% Tween-20 (TBST) and 5% BSA. […] Quantification of Cyclin D1 and Bcl-xL was performed by using a Molecular Dynamics Personal Densitometer SI and IMAGEQUANT software (Image Products International, Chantilly, Va.). Immunoblotting bands were quantified by densitometry and the Molecular Analyst software (AlphaDigidoc 1000, Alpho-Innotech) with normalization of each band to their corresponding loading control (Xi, S., et al. J Biol Chem, 278: 31574-31583, 2003). […]
(§2) As shown above, treatment with the STAT3 decoy abrogates STAT3 target gene expression in vivo. […] The data were analyzed using parametric analysis of variance of a two-way factorial design. […]

In series [6] the test system is STAT5. Kind of series: STAT5 activation by EMSA in harvested xenografts. The series is classed as in vivo. Conditions: xenografts after 25 treatments; specificity.
Series [7] has as its system Cyclin D1. Kind of series: Cyclin D1 expression by immunoblotting in SCCHN cells in vitro. It counts as cell-based, human. To be noted: 1483 cells; 25 μM, 6 days; p<0.0001. The protocol: as §1, §2
(Immunoblotting shows a protein as a band on a membrane.)

The test system of series [8] is Cyclin D1. Nature of the series: Cyclin D1 expression by immunoblotting in harvested xenografts. The series is classed as in vivo, human. Conditions: decoy alone, p=0.0022. The procedure: as §1, with “BSA. After blocking, membranes were incubated with a primary antibody; rabbit anti-human VEGF polyclonal antibody, rabbit anti-human Cyclin D1 polyclonal antibody, mouse anti-human Bcl-xL monoclonal antibody, or rabbit anti-human PCNA polyclonal antibody (Santa Cruz Biotechnology, Santa Cruz, Calif.), in TBST and 1% BSA.” for “BSA.”

Regarding “STAT3 decoy (sense CATTTCCCGTAAATC; antisense GATTTACGGGAAATG; phosphorothioate modified, further chemistry not given here; listed as Homo sapiens)”, the “cells in which decoy was detected” value in series [1] is reported as more than 90%. Besides, the “transcriptional repression of Egr-1 enhancer reporter” value in series [2] is given as “observed”. Further, the “toxicity to normal mucosal epithelial cells” value in series [3] is reported as “lack toxicity”. Besides, in series [4], the “increase in apoptosis (TUNEL) compared with mutant control decoy” value amounted to 3.25 fold. In addition, the “Bcl-xL expression compared with mutant control decoy” value in series [5] is recorded as “decreased”. For the same substance, the STAT5 activation entry in series [6] was “no abrogation”. The “Cyclin D1 expression compared with mutant control decoy” value in series [7] was “decreased”. In addition, in series [8], the “Cyclin D1 expression levels compared with mutant control decoy” value is “significant effect”.

Source of the values: patent US20060293264A1, “STAT3 decoy oligonucleotides and uses therefor” (priority 2004, published 2006).
